For series [1] the following is noted: very low and variable; cited from earlier work.
In series [2] the target is T1, circulating SAP (Homo sapiens, UniProt P02743).
T1 construct: host or cells: patients' plasma (in vivo)
Particulars: systemic amyloidosis patients, for as long as the drug was administered; cited from earlier work.

The target of series [3] is T2, SAP (Homo sapiens, UniProt P02743).
T2 construct: reduces the CSF SAP concentration from 2-30 μg/L to <0.1 μg/L in patients with Alzheimer's disease; host or cells: patients' plasma and cerebrospinal fluid (in vivo)
Particulars: cited from earlier work.

Series [4] deals with T3, CYP3A4 (Homo sapiens, UniProt P08684).
T3 construct: purchased Cypex; host or cells: bactosomes (bacterial membranes)
As to the kind of experiment: Cytochrome p450 inhibition, bactosomes, fluorogenic substrates 7BQ and DEF. Type of series: in vitro ADME. Particulars: for IC50: bactosomes. On the procedure:
The assay was designed to evaluate inhibition on cytochrome P450 (CYP) 3A4, 2C9, 2C19, 1A2 and 2D6 enzymes from bactosomes source using fluorogenic substrates. Compound (compound of Formula (I) or Comparator Compound) was dissolved in methanol at 1.65 mM. Daughter solutions were prepared in methanol at 660, 264, 106, 42, 17, 6.8, 2.7, 1.1 and 0.43 μM. NADPH cofactor was prepared with Glucose-6-phosphate (7.8 mg), Glucose-6-phosphate dehydrogenase (6 units), NADP (1.7 mg) per 1 mL in NaHCO3 2%. Substrate Preparation was as Follows: • 7-Methoxy-4-triFluoromethyl Coumarin-3-Acetic acid ethyl ester (FCA): 12.5 mM in acetonitrile • EthoxyResorufin (ER): 0.05 mM in acetonitrile • 4-MethylaminoMethyl-7-Methoxy Coumarin (MMC): 2.5 mM in methanol • 3-Butyryl-7Methoxy Coumarin (BMC): 2.5 mM in DMSO • 7-BenzyloxyQuinoline (7BQ): 2.5 mM in acetonitrile • DiEthoxyFluorescein (DEF): 0.1 mM in acetonitrile Bactosomes (Cypex source) at the concentration of 10 mg of protein per mL were diluted in phosphate buffer 50 mM pH7.4: • 0.33 mL of bactosomes CYP2C9 with 23.8 mL of buffer and 0.11 mL of FCA • 0.33 mL of bactosomes CYP1A2 with 23.6 mL of buffer and 0.275 mL of ER • 0.33 mL of bactosomes CYP2D6 with 23.8 mL of buffer and 0.11 mL of MMC • 0.33 mL of bactosomes CYP2C19 with 23.8 mL of buffer and 0.11 mL of BMC • 0.33 mL of bactosomes CYP3[…] with 23.6 mL of buffer and 0.275 mL of 7BQ • 0.33 mL of bactosomes CYP3[…] with 23.6 mL of buffer and 0.275 mL of DEF Pre-Incubation consisted in mixing 5 μL of compound solution with 220 μL diluted bactosomes and warming it at 37° C. for 10 min. Incubation was started with the addition of 25 μL of NADPH. Then fluorescence of substrate metabolite was read in a SAFIRE instrument (from Tecan) for 5 min: • FCA (2C9): Excitation at 410 nm and Emission at 510 nm • ER (1A2): Excitation at 530 nm and Emission at 590 nm • MMC (2D6): Excitation at 410 nm and Emission at 485 nm • BMC (2C19): Excitation at 410 nm and Emission at 465 nm • 7BQ (3A4H): Excitation at 410 nm and Emission at 530 nm • DEF (3A4L): Excitation at 485 nm and Emission at 530 nm Plotting of inhibition of substrate production against compound concentration allowed the determination of IC50 values.

For series [5], the target named is T4, CYP1A2 (Homo sapiens, UniProt P05177).
T4 construct: purchased Cypex; host or cells: bactosomes (bacterial membranes)
T4 sequence (P05177 1-516): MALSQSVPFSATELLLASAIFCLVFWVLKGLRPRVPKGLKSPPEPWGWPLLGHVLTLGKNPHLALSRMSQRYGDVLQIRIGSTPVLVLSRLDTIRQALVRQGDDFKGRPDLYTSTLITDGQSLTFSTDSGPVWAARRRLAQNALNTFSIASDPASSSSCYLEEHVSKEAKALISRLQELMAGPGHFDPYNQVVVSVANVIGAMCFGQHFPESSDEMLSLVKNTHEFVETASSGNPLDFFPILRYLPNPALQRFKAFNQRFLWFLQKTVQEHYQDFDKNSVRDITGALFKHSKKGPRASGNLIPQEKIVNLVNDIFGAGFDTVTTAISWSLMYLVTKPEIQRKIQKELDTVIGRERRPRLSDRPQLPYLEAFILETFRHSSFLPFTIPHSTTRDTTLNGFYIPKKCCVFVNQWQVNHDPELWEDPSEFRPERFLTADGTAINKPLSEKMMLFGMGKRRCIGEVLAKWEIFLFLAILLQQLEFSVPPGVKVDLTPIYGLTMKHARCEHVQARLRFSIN
Put plainly: Cytochrome p450 inhibition, bactosomes, fluorogenic substrate ER. The series is classed as in vitro ADME. The protocol:
(§1) The assay was designed to evaluate inhibition on cytochrome P450 (CYP) 3A4, 2C9, 2C19, 1A2 and 2D6 enzymes from bactosomes source using fluorogenic substrates. Compound (compound of Formula (I) or Comparator Compound) was dissolved in methanol at 1.65 mM. Daughter solutions were prepared in methanol at 660, 264, 106, 42, 17, 6.8, 2.7, 1.1 and 0.43 μM. NADPH cofactor was prepared with Glucose-6-phosphate (7.8 mg), Glucose-6-phosphate dehydrogenase (6 units), NADP (1.7 mg) per 1 mL in NaHCO3 2%. […]

Series [6] deals with T5, CYP2D6 (Homo sapiens, UniProt P10635).
T5 construct: purchased Cypex; host or cells: bactosomes (bacterial membranes)
As to the kind of experiment: Cytochrome p450 inhibition, bactosomes, fluorogenic substrate MMC. The series is classed as in vitro ADME. On the procedure:
as §1

A short description of series [7]: Physical stability (hydrolysis) in phosphate buffer at various pHs. Type of series: physicochemical. The protocol: The assay was designed for determining physical stability of compound in buffer at various pHs. Compound of Formula (I) was dissolved in DMSO at 1 mg/mL. Phosphate buffer (PBS) was prepared by mixing K2HPO4 50 mM and KH2PO4 50 mM solutions to obtain 4 buffers at pH 6.0, 7.0, 7.5, 8.0.
Stability studies were conducted at room temperature, and were started by the addition of 8 μL of DMSO solution to 792 μL of PBS 50 mM at pH 6.0, 7.0, 7.5 or 8.0 (1% DMSO). 75 μl of mixture was taken at 0, 1, 2, 4 and 24 h and 225 μL acetonitrile containing internal standard was added.
2 μL of samples were injected into the liquid chromatography system and eluted with a Ascentis C18 column (50×2.1 mm id, 2.7 μm) and with 0.1% formic acid in water (A) and 0.1% formic acid in acetonitrile (B), using the following elution 2 min gradient: 5 to 95% B over 1.2 min, 95% B over 0.6 min and 0.1 min for re-equilibrate column, at 0.5 mL/min at 50° C.
Samples were analysed by Mass Spectrometry with an electrospray source and in positive mode and with following mass transitions: • Compound of Formula (I): 625 to 368 • Monoester of CPHPC: 483 to 226 • CPHPC: 341 to 226

The nature of series [8]: Solubility in aqueous media. The series is classed as physicochemical. Particulars: thermodynamic from solid, 4 hour timepoint, read-out: Solubility (mg/mL) at 4 hour timepoint. The protocol: A known quantity of the compound of Formula (I) was weighed into a suitable vessel (e.g. a screw capped clear glass vial) and a known volume of the required media added (e.g. Simulated Gastric Fluid pH 1.6 [SGF], Simulated Fed State Intestinal Fluid pH 6.5 [FeSSIF], Simulated Fasted State Intestinal Fluid pH 6.5 [FaSSIF], Water [Purified Water], or Britton-Robinson buffer). The compound was wetted with the media by vortex mixing for 30 seconds to 1 minute. The sample was then visually observed to ensure that undissolved solid remained present. The sample was transferred to a gentle mixer (such as a roller mixer) and allowed to agitate until the desired time point was reached. At appropriate times the sample was reassessed visually. If all the solid had dissolved the solubility was recorded as >x mg/mL where x is the known weight used divided by the volume added. If undissolved solid remained a portion of the sample was taken and centrifuged to remove the solid leaving a clear supernatant. The supernatant was diluted volumetrically with a suitable diluent to provide an analytical sample of suitable concentration for analysis. This diluted sample was then analysed by a suitable method such as HPLC against a standard(s) of known concentration. The solubility of the compound can then be calculated using a knowledge of the concentration of the standard, the relative response (e.g. peak areas) of the standard and the analytical sample described, and the dilution of the analytical sample.

Series [9] deals with T6, CYP2C19 (Homo sapiens, UniProt P33261).
T6 construct: purchased Cypex; host or cells: bactosomes (bacterial membranes)
As to the kind of experiment: Cytochrome p450 inhibition, bactosomes, fluorogenic substrate BMC. Type of series: in vitro ADME. On the procedure:
as §1

Series [10] can be described thus: Intestinal microsomal stability. The series is classed as in vitro ADME. Particulars: up to 30 minutes, 37° C. The protocol:
The assay was designed for determining stability of compound in microsomal matrix. Compound (Compound of Formula (I)) was dissolved in DMSO at 1 mg/mL. Daughter solution was prepared in methanol/water (50/50) at 30.3 ng/mL. Microsomes (from Xenotech) were diluted at 0.625 mg proteins per mL in phosphate buffer 50 mM pH 7.4.
Pre-Incubation consisted of warming microsomal solution 395 μL with 100 μL NaHCO3 (2%) at 37° C. for 7 min. Incubation was started with the addition of 5 μL of daughter solution. 50 μL aliquots of mixture were taken at 0, 3, 6, 12 and 30 min and quenched with 150 μL acetonitrile containing internal standard.
After 10 min centrifugation at 4000 rpm, 2 μL of samples were injected into the liquid chromatography system and eluted on a Ascentis C18 column (50×2.1 mm id, 2.7 μm) with 0.1% formic acid in water (A) and 0.1% formic acid in acetonitrile (B), using the following 2 minute elution gradient: 5 to 95% B over 1.2 min, 95% B over 0.6 min and 0.1 min for re-equilibrate column, at 0.5 mL/min at 50° C.
Samples were analysed by Mass Spectrometry with an electrospray source, in positive mode and with following mass transitions: • Compound of Formula (I): 625 to 368 • Monoester of CPHPC: 483 to 226 • CPHPC: 341 to 226
Controls were made to calculate percentage of disappearance of parent but also appearance of suspected metabolite, i.e. monoester and diacidic form.

The target of series [11] is T7, CYP2C9 (Homo sapiens, UniProt P11712).
T7 construct: purchased Cypex; host or cells: bactosomes (bacterial membranes)
As to the kind of experiment: Cytochrome p450 inhibition, bactosomes, fluorogenic substrate FCA. The series is classed as in vitro ADME. The protocol:
as §1

The mark [12] stands for this setting: substrate DEF, read-out: IC50 CYP3A4 (DEF).

Here are results for four compounds from US10328052B2, “D-proline derivatives as SAP depleting agent” (GlaxoSmithKline Intellectual Property Development Limited, priority 2015, dated 2019).

Molecules are shown by their SMILES. Read-outs that look alike come from different tables or passages of the source.

T3 sequence (P08684 whole entry): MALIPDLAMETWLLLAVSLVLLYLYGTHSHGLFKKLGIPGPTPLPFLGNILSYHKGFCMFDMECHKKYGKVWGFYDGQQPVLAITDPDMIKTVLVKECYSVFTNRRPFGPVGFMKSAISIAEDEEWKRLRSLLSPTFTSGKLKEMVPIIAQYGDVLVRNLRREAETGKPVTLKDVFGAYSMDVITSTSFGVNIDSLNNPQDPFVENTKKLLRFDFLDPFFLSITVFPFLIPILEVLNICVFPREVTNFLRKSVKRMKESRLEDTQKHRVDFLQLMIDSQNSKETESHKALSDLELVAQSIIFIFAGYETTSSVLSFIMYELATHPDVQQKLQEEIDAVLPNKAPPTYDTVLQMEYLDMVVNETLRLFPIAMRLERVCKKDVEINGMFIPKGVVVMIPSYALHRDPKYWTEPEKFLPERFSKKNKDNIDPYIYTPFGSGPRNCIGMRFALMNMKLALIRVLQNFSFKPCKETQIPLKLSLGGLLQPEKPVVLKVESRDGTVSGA
T5 sequence (P10635 whole entry): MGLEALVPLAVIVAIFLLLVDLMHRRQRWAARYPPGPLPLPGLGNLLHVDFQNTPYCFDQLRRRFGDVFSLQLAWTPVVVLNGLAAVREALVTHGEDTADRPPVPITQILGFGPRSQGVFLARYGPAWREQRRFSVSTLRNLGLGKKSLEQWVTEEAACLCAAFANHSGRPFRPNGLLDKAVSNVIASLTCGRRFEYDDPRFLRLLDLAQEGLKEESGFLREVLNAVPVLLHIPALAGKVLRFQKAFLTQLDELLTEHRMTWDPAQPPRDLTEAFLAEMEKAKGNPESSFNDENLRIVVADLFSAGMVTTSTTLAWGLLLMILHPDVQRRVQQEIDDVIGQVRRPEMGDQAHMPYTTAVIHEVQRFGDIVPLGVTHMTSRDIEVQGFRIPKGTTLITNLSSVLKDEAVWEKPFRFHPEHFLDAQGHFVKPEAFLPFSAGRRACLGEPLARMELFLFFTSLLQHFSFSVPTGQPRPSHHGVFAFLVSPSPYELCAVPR
T7 sequence (P11712 whole entry): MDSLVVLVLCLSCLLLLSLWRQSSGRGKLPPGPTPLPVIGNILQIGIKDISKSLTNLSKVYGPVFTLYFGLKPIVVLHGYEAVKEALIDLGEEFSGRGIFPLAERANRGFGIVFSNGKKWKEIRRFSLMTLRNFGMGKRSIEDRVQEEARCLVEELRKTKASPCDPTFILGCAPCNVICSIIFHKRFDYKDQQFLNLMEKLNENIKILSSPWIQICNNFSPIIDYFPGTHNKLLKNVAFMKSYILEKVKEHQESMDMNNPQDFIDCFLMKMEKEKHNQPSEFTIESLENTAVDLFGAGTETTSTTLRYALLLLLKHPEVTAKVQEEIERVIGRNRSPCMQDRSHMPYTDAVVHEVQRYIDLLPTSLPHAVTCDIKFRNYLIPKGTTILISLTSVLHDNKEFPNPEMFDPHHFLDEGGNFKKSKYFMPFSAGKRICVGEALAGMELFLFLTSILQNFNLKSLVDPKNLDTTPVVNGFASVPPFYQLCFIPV
T2 sequence (P02743 20-223): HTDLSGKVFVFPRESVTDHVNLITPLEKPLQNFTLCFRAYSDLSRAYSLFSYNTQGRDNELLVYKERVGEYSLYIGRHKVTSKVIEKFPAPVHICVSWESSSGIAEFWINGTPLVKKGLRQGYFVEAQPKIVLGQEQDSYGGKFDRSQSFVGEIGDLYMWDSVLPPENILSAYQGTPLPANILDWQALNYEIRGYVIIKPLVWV
T6 sequence (P33261 whole entry): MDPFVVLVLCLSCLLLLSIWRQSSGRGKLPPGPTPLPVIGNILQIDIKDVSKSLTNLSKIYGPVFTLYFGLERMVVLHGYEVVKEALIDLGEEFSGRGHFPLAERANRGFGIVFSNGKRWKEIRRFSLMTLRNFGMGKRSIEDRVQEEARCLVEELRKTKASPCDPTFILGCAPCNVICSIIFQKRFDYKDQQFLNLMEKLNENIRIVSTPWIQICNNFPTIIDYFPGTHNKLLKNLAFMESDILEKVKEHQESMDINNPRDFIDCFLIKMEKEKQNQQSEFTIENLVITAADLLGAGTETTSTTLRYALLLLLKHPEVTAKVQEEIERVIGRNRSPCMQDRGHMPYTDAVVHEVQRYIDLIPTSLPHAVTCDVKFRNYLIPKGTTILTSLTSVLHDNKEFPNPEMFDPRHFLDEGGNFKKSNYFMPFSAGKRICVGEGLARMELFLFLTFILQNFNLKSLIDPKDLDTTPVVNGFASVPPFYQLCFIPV
T1 sequence (P02743 20-223): as the sequence (P02743 20-223) above

As for `O=C(O)[C@H]1CCCN1C(=O)CCCCC(=O)N1CCC[C@@H]1C(=O)O` [CPHPC, (R)-1-[6-[(R)-2-carboxy-pyrrolidin-1-yl]-6-oxo-hexanoyl]pyrrolidine-2-carboxylic acid], the oral bioavailability in series [1] is 3-5%. Also, the “depletion of circulating SAP (in words)” value in series [2] was “almost complete depletion”. Moreover, in [3] (CSF, patients with Alzheimer's disease, from 2-30 μg/L), the “CSF SAP concentration after depletion by CPHPC” value is < 0.1 µg/L. For the same compound, the “plasma SAP after depletion by CPHPC” value in series [3] (plasma, from the normal 20-50 mg/L) was < 0.1 mg/L.

With `CC(OC(=O)[C@H]1CCCN1C(=O)CCCCC(=O)N1CCC[C@@H]1C(=O)OC(C)OC(=O)C(C)(C)C)OC(=O)C(C)(C)C` (stereo partly drawn) [Comparator Compound, (2R,2′R)-bis(1-(pivaloyloxy)ethyl) 1,1′-adipoylbis(pyrrolidine-2-carboxylate), reference compound], in series [4] (substrate 7BQ), the “inhibition of CYP3A4-7BQ (in words)” value is reported as “significant inhibition”. In addition, in series [4] (substrate DEF), the “inhibition of CYP3A4-DEF (in words)” value is “significant inhibition”.

What is called IC50 is the concentration that inhibits the measured activity by half. With `O=C(OCOC(=O)[C@H]1CCCN1C(=O)CCCCC(=O)N1CCC[C@@H]1C(=O)OCOC(=O)C1CCOCC1)C1CCOCC1` [Compound of Formula (I), (2R,2′R)-bis(((tetrahydro-2H-pyran-4-carbonyl)oxy)methyl) 1,1′-adipoylbis(pyrrolidine-2-carboxylate)], the IC50 was > 33 µM in series [5]; > 33 µM in series [4] (substrate 7BQ, read-out: IC50 CYP3A4 (7BQ)); > 33 µM in series [4] (setting [12]); > 33 µM in [6]; > 33 µM in [9]; > 33 µM in series [11]. In addition, the “sensitivity to hydrolysis at different pH (in words)” value in series [7] (PBS pH6 to pH8, room temperature) is reported as “less sensitive to hydrolysis for a pH below 7.5”. In series [7] (acidic environment (pH less than 7.0), PBS, room temperature, 24 h), the “compound hydrolysed after 24 h” value is recorded as “Less than 20%”. The solubility at 4 h was 1.04 mg/mL in series [8] (FaSSIF (Simulated Fasted State Intestinal Fluid pH 6.5)); 0.599 mg/mL in series [8] (FeSSIF (Simulated Fed State Intestinal Fluid pH 6.5)); 0.577 mg/mL in series [8] (SGF (Simulated Gastric Fluid pH 1.6)); 0.574 mg/mL in series [8] (water (purified water), Water). For the same compound, the “rate of hydrolysis in human intestinal microsomes (in words)” value in series [10] is given as “low rate of hydrolysis”.

For the compound `O=C(OCOC(=O)[C@H]1CCCN1C(=O)CCCCC(=O)N1CCC[C@@H]1C(=O)O)C1CCOCC1` [mono-ester derivative, (R)-1-(6-oxo-6-((R)-2-((((tetrahydro-2H-pyran-4-carbonyl)oxy)methoxy)carbonyl)pyrrolidin-1-yl)hexanoyl)pyrrolidine-2-carboxylic acid], the IC50 in [5], in series [4] (setting [12]), in [6], in series [9] and in [11] was > 33 µM each time.
